Data published in patent US20080221074A1, “Drug Screen and Treatment Method” (priority 2006, published 2008).
“Also recorded” adds a separate entry of the source.

Columns and labels:
estrogen receptor-β = estrogen receptor-β (Homo sapiens, UniProt Q92731); assay: interaction with sex hormone receptor; type: binding
[1] = system: blood glucose in db/db mice; assay: glucose lowering in diabetic db/db mice; type: in vivo, db/db C57BL/Ks mice
Method: Glucose lowering and amelioration of insulin resistance. Glucose lowering effects and amelioration of insulin resistance was assessed in the diabetic db/db mouse model of human diabetes and insulin resistance. In these studies, db/db C57BL/Ks mice of approximately 8 to 10 weeks of age were divided into groups of 10 each and then treated with a vehicle control (no drug) or 17α-ethynylandrost-5-ene-3β,7β,17β-triol by oral gavage. The compound was administered twice a day at 20 mg/kg/day (10 mg/kg dose administered twice per day), 40 mg/kg/day (20 mg/kg dose administered twice per day) or 80 mg/kg/day (40 mg/kg dose administered twice per day) for up to 28 days. Blood glucose levels were monitored twice a week during the dosing period, using a minute amount of blood (nick tail bleeds) to measure the concentration of glucose by glucometer strips. At specific times during the dosing period (day 14 and day 28), an oral glucose tolerance test (OGTT) was also performed by administering a standard oral dose of 1 g/kg glucose (approximately 40 mg in a […]) and then the fluctuation of blood glucose levels was monitored quickly thereafter after at 15, 30, 60 and 120 minutes after the glucose dose. […] Blood glucose approached 380 mg/dL in the vehicle control group and was <230 mg/dL after at least 10 days of dosing in the drug treated group.
A treatment protocol similar to that described in example 15 was performed with db/db mice that were younger than the animals described in example 15. The animals (n=8 to 10 per group) were treated with 17α-ethynylandrost-5-ene-3β,7β,17β-triol or vehicle by oral gavage twice per day at 40 mg/kg/day (20 mg/kg dose given twice per day) and 80 mg/kg/day (40 mg/kg dose given twice per day). At the start of dosing, the animals were 6 weeks of age, before the onset of elevated glucose levels or hyperglycemia. Dosing with vehicle or drug was maintained for 32 days to determine the effect of the treatments on the onset and rate of progression of hyperglycemia in the animals. In the control group, the onset of hyperglycemia was observed after 25 days of dosing and it continued to worsen, i.e., blood glucose levels rose from normal to frank hyperglycemia, through the end of the 32 day dosing period.

[2] = system: monocyte chemoattractant protein-1 (MCP-1); assay: MCP-1 RNA in perigonadal fat tissue by quantitative RT/PCR; type: in vivo, db/db mice; details: 20 mg/kg; normalized to vehicle control
Method: In another study, total RNA from perigonadal fat tissue from lean db/+ or diabetic db/db mice treated with 20 mg/kg of 17α-ethynylandrost-5-ene-3β,7β,17β-triol was isolated and processed for quantitative RT/PCR using primers specific for monocyte chemoattractant protein-1 (MCP-1) using an icycler iQ multicolor real time-detection system (Bio-Rad). RNA expression levels were normalized with respect to the vehicle control. […] For this study, vehicle was also administered to a control group of age matched lean heterozygous db/+ mice (n=7).

[3] = system: insulin sensitivity in db/db diabetic mice; assay: hyperinsulinemic-euglycemic clamp; type: in vivo; details: oral gavage 14 days; insulin 10 mU/kg/min
Method: Glucose lowering in 8 week old db/db diabetic mice. The hyperinsulinemic-euglycemic clamp protocol was conducted to measure insulin sensitivity in vivo. In this procedure, insulin was administered to raise the insulin concentration while glucose was infused to maintain euglycemia or a fixed, normal blood glucose level (about 180 mg/dL). […] The objective of this protocol was to investigate characterize the capacity of 17α-ethynylandrost-5-ene-3β,7β,17β-triol and androst-5-ene-3β,7β,16α,17β-tetrol to ameliorate systemic insulin resistance and improve whole body glucose disposal in the hyperinsulinemic-euglycemic clamp model. The degree of skeletal muscle and hepatic insulin sensitivity and tissue specific glucose uptake were also assessed. The animals were dosed daily by oral gavage for 14 days. On Day 10 of treatment catheters were implanted in the carotid artery and jugular vein. On the day of the clamp (day 14) the compound was administered at 7:30 am.
Body weight and glucose concentration were assessed on day 0, 7 and day 14 of treatment. On day 14 a euglycemic hyperinsulinemic clamp was performed. Food was removed at 7:30 am at 10:30 a primed continuous infusion of [3-^3H]-glucose (0.05 μCi/min). A baseline blood sample was taken at 12:50 (−10 min) and at 1:00 (0 min) a euglycemic hyperinsulinemic clamp was initiated by administering 10 mU /kg/min of insulin. Glucose was infused at a variable rate to clamp the glucose concentration at ˜180 mg/dl. A bolus of [^14C]-2deoxyglucose was given at the end of the study to assess tissue specific glucose uptake. Plasma ^14C 2-deoxyglucose was assessed at 122, 125, 130, 135, 145 min. […]
Analysis was conducted as follows. Plasma samples were deproteinized with Ba(OH)2 (0.3 N) and ZnSO4 (0.3 N), dried and radioactivity was assessed on scintillation counter (Packard TRICARB 2900 TR, Meriden, Conn.). […] One supernatant was directly counted to determine radioactivity from both [14C] […] A second aliquot was treated with Ba(OH)2 and ZnSO4 to remove ^14C DGP and any tracer incorporated into glycogen and then counted to determine radioactivity from free [^14C]DG(2). [^14C]DGP was calculated as the difference between the two aliquots. […] Rg, an index of tissue specific glucose uptake was calculated as previously described (E.W. Kraegen et al., Am. J. Physiol., 248:E353-E362, 1985). Whole body glucose turnover was calculated as the ratio of the ^3H glucose infusion rate (dpm/kg/min) and arterial plasma glucose specific activity (dpm/mg). Endogenous glucose production was calculated as the difference between the whole body glucose turnover and the exogenous glucose infusion rate (R. N. Bergman et al., Endocr. Rev., 6:45-86, 1985).

Sequence of estrogen receptor-β (Q92731 whole entry, species assumed): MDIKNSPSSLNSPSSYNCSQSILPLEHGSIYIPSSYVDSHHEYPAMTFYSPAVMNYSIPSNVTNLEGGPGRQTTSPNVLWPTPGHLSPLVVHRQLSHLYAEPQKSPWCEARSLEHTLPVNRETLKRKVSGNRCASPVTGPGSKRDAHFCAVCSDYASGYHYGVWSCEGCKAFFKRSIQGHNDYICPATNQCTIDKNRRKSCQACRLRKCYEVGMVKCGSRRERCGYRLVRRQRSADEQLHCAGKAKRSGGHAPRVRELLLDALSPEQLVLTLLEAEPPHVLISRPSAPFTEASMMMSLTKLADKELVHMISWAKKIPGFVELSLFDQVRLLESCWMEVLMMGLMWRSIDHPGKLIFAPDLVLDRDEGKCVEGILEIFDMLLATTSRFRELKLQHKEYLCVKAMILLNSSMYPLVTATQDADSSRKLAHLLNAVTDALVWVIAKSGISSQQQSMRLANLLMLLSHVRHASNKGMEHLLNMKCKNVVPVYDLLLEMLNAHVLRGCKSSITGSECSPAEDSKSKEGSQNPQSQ

## C#C[C@]1(O)CC[C@H]2[C@@H]3[C@@H](O)C=C4C[C@@H](O)CC[C@]4(C)[C@H]3CC[C@@]21C [17α-ethynylandrost-5-ene-3β,7β,17β-triol]
Estrogen receptor-β
  interaction with estrogen receptor-β: do not interact
[1]; 80 mg/kg b.i.d. for 28 days, 30-min post-oral glucose
  OGTT peak glycemic excursion: < 200 mg/dL
[1]; 6 week old db/db mice, 32 day dosing
  onset of hyperglycemia: did not rise above normal levels; also recorded: completely blocked progression
[1]; 8 to 10 week old db/db mice, oral gavage twice a day
  decrease in hyperglycemic blood glucose levels: approximately 40%
[1]; 8 week old male db/db mice, 40 mg/kg dose group, twice a day
  basal blood glucose: markedly suppressed
[1]; after at least 10 days of dosing
  blood glucose: < 230 mg/dL
[1]; treated db/db animals
  glucose intolerance in OGTT vs vehicle: significant amelioration of glucose intolerance
[2]
  decrease of MCP-1 levels: about 50%
[3]
  glucose infusion rate compared to vehicle control: increased the glucose infusion rate
